“Also recorded” adds a separate entry of the source. Where two headings read alike, the source gives them in different places.
Columns and labels:
[1] = intravenous; Ketorolac Tromethamine Injection Prescribing Information; cited from earlier work
[2] = Single-dose IV meloxicam pharmacokinetics in elderly subjects with mild renal impairment vs healthy controls (Example 3); assay type: in vivo, human; settings: single IV dose 30 mg; for AUC(0-6) / AUC(0-t) / AUC(0-inf) / Cmax: iv, 30 mg; for AUC(0-6): AUC0-6 (Mean ± SD), heading: AUC0-6
Procedure: (§1) This study was a single-center, open-label evaluation of the pharmacokinetics and safety, of single doses of meloxicam in elderly subjects with impaired renal function compared with healthy controls. The study enrolled 12 subjects. Eligible subjects were assigned to a study cohort based on their age and renal function. Renal function was assessed using below the equation for estimation of the glomerular filtration rate (GFR).
SCr=serum creatinine measured with a standardized assay.
Enrolled subjects were matched between cohorts according to gender and BMI (±20%).
Enrolled subjects returned to the study center on the day before dosing (Day −1).

[3] = Safety of repeat-dose IV meloxicam 30 mg after major surgery in elderly subjects with impaired renal function (Example 4); settings: for tolerability: advanced age
[4] = Postoperative opioid analgesic use, IV meloxicam 30 mg vs placebo (Example 4); assay type: in vivo, human; settings: for reduction in opioid use compared with placebo: 30 mg IV, p<0.05
[5] = Safety of single IV dose 30 mg meloxicam (Example 3); assay type: in vivo, human
Procedure: as §1, with “(GFR). GFR(mL/min/1.73 m^2)=175×(SCr)^−1.154×(Age)^−0.203×(0.742 if female)×(1.212 if African American)” for “(GFR).”
Enrolled subjects were matched between cohorts according to gender and BMI (±20%). Subjects were assigned to cohorts as follows: • Cohort 1 (n=6; 3 male, 3 female): subjects aged 65 to 80 years with impaired renal function (GFR 60-89 mL/min/1.73 m^2) • Cohort 2 (n=6; 3 male, 3 female): subjects aged 18 to 55 years with normal renal function (GFR≥90 mL/min/1.73 m^2).
Enrolled subjects returned to the study center on the day before dosing (Day −1). During the treatment visit (Day −1 to Day 3), subjects received a single IV dose 30 mg (25 mg/mL) meloxicam. Whole blood samples were collected for pharmacokinetic (PK) analysis prior to dosing and 5, 10, 20, 30, and 45 minutes, and 1, 2, 4, 6, 12, 18, 24, 36, and 48 hours after dosing.
Safety assessments included monitoring of AEs (adverse events), clinical laboratory tests, vital sign measurements, and ECGs. Upon completion of the treatment visit through Hour 48 (Day 3) assessments, the subjects were discharged from the study center.

[6] = Injection site pain reported after intravenous meloxicam; assay type: in vivo, human; settings: patients receiving a dose of intravenous meloxicam

O=C(c1ccccc1)c1ccc2n1CCC2C(=O)O (stereo not drawn) [ketorolac]
onset of pain relief [1]: up to 30 minutes

Cc1cnc(NC(=O)C2=C(O)c3ccccc3S(=O)(=O)N2C)s1 [meloxicam, 4-hydroxy-2-methyl-N-(5-methyl-2-thiazolyl)-2H-1,2-benzothiazine-3-carboxamide-1,1-dioxide]
AUC(0-6) ([2]; both sexes, human, plasma, Cohort 1 (65-80 years, mild renal impairment)): 16100 ± 1700 ng·h/mL | AUC(0-6) ([2]; both sexes, human, plasma, Cohort 2 (18-55 years, normal renal function)): 16300 ± 2170 ng·h/mL | AUC(0-t) ([2]; both sexes, human, plasma, Cohort 1 (65-80 years, mild renal impairment), read-out: AUC0-12 (Mean ± SD)): 26000 ± 2690 ng·h/mL | AUC(0-t) ([2]; both sexes, human, plasma, Cohort 1 (65-80 years, mild renal impairment), read-out: AUC0-24 (Mean ± SD)): 40600 ± 4750 ng·h/mL | AUC(0-t) ([2]; both sexes, human, plasma, Cohort 1 (65-80 years, mild renal impairment), read-out: AUC0-t (Mean ± SD)): 70900 ± 18500 ng·h/mL | AUC(0-inf) ([2]; both sexes, human, plasma, Cohort 1 (65-80 years, mild renal impairment), read-out: AUC0-∞ (Mean ± SD)): 71800 ± 19600 ng·h/mL | AUC(0-t) ([2]; both sexes, human, plasma, Cohort 1 (mild renal impairment), read-out: AUC0-t, Least Square Geometric Mean): 69100 ng·h/mL | AUC(0-inf) ([2]; both sexes, human, plasma, Cohort 1 (mild renal impairment), read-out: AUC0-∞, Least Square Geometric Mean): 69800 ng·h/mL | Cmax ([2]; both sexes, human, plasma, Cohort 1 (mild renal impairment), read-out: Cmax, Least Square Geometric Mean): 5870 ng/mL | Cmax ([2]; both sexes, human, plasma, Cohort 1: aged 65 to 80 years, GFR 60-89 mL/min/1.73 m^2, plasma, read-out: Cmax (Mean ± SD)): 5920 ± 842 ng/mL | AUC(0-t) ([2]; both sexes, human, plasma, Cohort 2 (18-55 years, normal renal function), read-out: AUC0-12 (Mean ± SD)): 26400 ± 3920 ng·h/mL | AUC(0-t) ([2]; both sexes, human, plasma, Cohort 2 (18-55 years, normal renal function), read-out: AUC0-24 (Mean ± SD)): 41000 ± 8670 ng·h/mL | AUC(0-t) ([2]; both sexes, human, plasma, Cohort 2 (18-55 years, normal renal function), read-out: AUC0-t (Mean ± SD)): 67900 ± 22500 ng·h/mL | AUC(0-inf) ([2]; both sexes, human, plasma, Cohort 2 (18-55 years, normal renal function), read-out: AUC0-∞ (Mean ± SD)): 68500 ± 22800 ng·h/mL | AUC(0-t) ([2]; both sexes, human, plasma, Cohort 2 (healthy control), read-out: AUC0-t, Least Square Geometric Mean): 64500 ng·h/mL | AUC(0-inf) ([2]; both sexes, human, plasma, Cohort 2 (healthy control), read-out: AUC0-∞, Least Square Geometric Mean): 65100 ng·h/mL | Cmax ([2]; both sexes, human, plasma, Cohort 2 (healthy control), read-out: Cmax, Least Square Geometric Mean): 5580 ng/mL | Cmax ([2]; both sexes, human, plasma, Cohort 2: aged 18 to 55 years, normal renal function, plasma, read-out: Cmax (Mean ± SD)): 5620 ± 713 ng/mL | Tmax ([2]; both sexes, human, plasma, all subjects (both cohorts)): 4.8 min | AUC0-t, Least Square Geometric Mean Ratio (%) (Cohort 1/Cohort 2) [2]: 107% | AUC0-∞, Least Square Geometric Mean Ratio (%) (Cohort 1/Cohort 2) [2]: 107% | Cmax, Least Square Geometric Mean Ratio (%) (Cohort 1/Cohort 2) [2]: 105% | Tmax, Median (range) ([2]; Cohort 1 (65-80 years, mild renal impairment)): 0.08 (0.08-0.08) h | Tmax, Median (range) ([2]; Cohort 2 (18-55 years, normal renal function)): 0.08 (0.08-0.08) h | intensity of AEs ([3]; 30 mg IV every 24 hours up to 7 doses): generally mild or moderate in intensity | tolerability ([3]; 30 mg IV every 24 hours up to 7 doses after major surgery, impaired renal function): well tolerated | tolerability ([3]; 30 mg IV every 24 hours up to 7 doses after major surgery, impaired renal function, listed as IV meloxicam): well tolerated with no deaths or discontinuations due to an AE | incidence of SAEs ([3]; 30 mg IV every 24 hours up to 7 doses after major surgery, age 66-80 years, impaired renal function): 2.3% | injection site AEs ([3]; 30 mg IV over 15-30 seconds every 24 hours up to 7 doses): no injection site AEs | reduction in opioid use compared with placebo ([4]; Hour 0-24 interval): 42.8% | reduction in opioid use compared with placebo ([4]; Hour 24-48 interval): 41.9% | statistically significant reductions in opioid use compared with placebo ([4]; during treatment, 30 mg IV daily): up to 42.8% | infusion or infusion site reactions ([5]; 30 mg as an IV infusion over 17-20 seconds): not associated with any infusion, or infusion site, reactions | intensity of AEs ([5]; single IV dose 30 mg): generally mild or moderate in intensity | vital sign or ECG findings ([5]; single IV dose 30 mg): no clinically significant vital sign or ECG (electrocardiogram) findings | incidence of adverse events (subjects with any event) ([5]; single IV dose 30 mg, all 12 subjects): 33.3% | tolerability ([5]; single IV dose 30 mg, healthy subjects and subjects with mild renal impairment): well tolerated with no incidence of death, SAEs (severe adverse events), or discontinuations due to an AE; also recorded: safe and well tolerated | patients who reported injection site pain [6]: 2%

— patent US10881663B2, “Method of treating pain in elderly patients with mild renal impairment” (Baudax Bio, Inc., priority 2018, dated 2021)
